Like-named read-outs stand apart in the source and are kept apart here. Bridge positions count the residues as written; N and C are the ends. Peptide text beside a SMILES is read from it.
Target: T1, recombinant DLL3 ectodomain (rhDLL3-Fc) (Homo sapiens, UniProt Q9NYJ7)
T1 construct: The recombinant DLL3 ectodomain (rhDLL3-Fc) was biotinylated; Fc
T1 sequence (Q9NYJ7 27-492 limits assumed): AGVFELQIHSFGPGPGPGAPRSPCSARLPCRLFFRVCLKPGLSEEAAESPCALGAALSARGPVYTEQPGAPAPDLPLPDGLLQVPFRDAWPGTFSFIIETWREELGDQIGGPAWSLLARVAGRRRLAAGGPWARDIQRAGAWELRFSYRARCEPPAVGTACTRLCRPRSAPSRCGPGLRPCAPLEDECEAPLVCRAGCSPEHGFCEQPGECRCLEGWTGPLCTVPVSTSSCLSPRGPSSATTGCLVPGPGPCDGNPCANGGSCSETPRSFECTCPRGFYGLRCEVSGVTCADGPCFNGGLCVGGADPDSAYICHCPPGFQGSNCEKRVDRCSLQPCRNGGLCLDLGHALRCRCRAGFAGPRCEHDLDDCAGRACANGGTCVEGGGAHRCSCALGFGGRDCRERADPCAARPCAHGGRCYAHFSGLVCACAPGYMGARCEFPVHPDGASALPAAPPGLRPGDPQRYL
Experiment: Binding kinetic assay using Bio-layer interferometry (BLI)
Conditions: for binding mode to DLL3: peptides at 20, 4 and 0.8 μM, fit to 1:1 Langmuir binding model
Procedure: Binding kinetic assays were performed using Bio-layer interferometry (BLI) technology. The recombinant DLL3 ectodomain (rhDLL3-Fc) was biotinylated using EZ-Link Sulfo-NHS-LC-LC-Biotin Kit according to the manufacturer's protocol (Pierce by Thermo Fisher Scientific). The recombinant protein was incubated with an excess of NHS-LC-LC Biotin ester, in a molar ratio of 1:3 (protein: biotin), at 25° C. for 90 min. The un-reacted biotin ester was removed by subsequent buffer exchange on 0.5 ml Zeba spin desalting columns 7K MWCO (Pierce by Thermo Fisher Scientific).

[1] = Table 4, ± values from three independent experiments, read-out: RT (residence time) (converted)

Row | SMILES | RT (residence time) (Table 4, ± values from three independent experiments) [s] | residence time [1] [min] | binding mode to DLL3 | residence time (range over the seven peptides, read-out: residence time) [min] | affinity (wider dose-response 10×KD to 0.1×KD) | Kd (Table 4, global fitting 1:1 Langmuir, koff vs kon ratio, ± values from three independent experiments) [µM]
1 | CC(C)[C@H](NC(=O)[C@@H](NC(=O)[C@H](CCC(=O)O)NC(=O)[C@H](C)N)[C@@H](C)O)C(=O)N[C@@H](CCC(=O)O)C(=O)N[C@@H](Cc1ccccc1)C(=O)N[C@@H](CC(=O)O)C(=O)NCC(=O)N[C@H]1CSSC[C@@H](C(=O)N[C@@H](Cc2c[nH]c3ccccc23)C(=O)N[C@@H](Cc2c[nH]c3ccccc23)C(N)=O)NC(=O)[C@H]([C@@H](C)O)NC(=O)[C@H](Cc2c[nH]c3ccccc23)NC(=O)[C@H](CCC(=O)O)NC(=O)[C@H](Cc2ccc(O)cc2)NC(=O)[C@H](Cc2c[nH]c3ccccc23)NC(=O)[C@H](CC(=O)O)NC(=O)CNC(=O)[C@H](CCCCN)NC1=O [PepSP1164] (H-AETVEFDGCKGDWYEWTCWW-NH2; disulfide 9-18) |  | 2.08 | dose-response saturable binding |  |  | 0.125
2 | CC(C)[C@H](NC(=O)[C@@H]1CSSC[C@H](NC(=O)CNC(=O)[C@H](Cc2ccc(O)cc2)NC(=O)[C@H](Cc2ccccc2)NC(=O)[C@H](CCC(=O)O)NC(=O)[C@@H](NC(=O)[C@@H](NC(=O)[C@H](CCC(=O)O)NC(=O)[C@H](C)N)[C@@H](C)O)C(C)C)C(=O)N[C@@H](CCCNC(=N)N)C(=O)NCC(=O)NCC(=O)N[C@@H](CC(=O)O)C(=O)NCC(=O)N[C@@H](CCC(=O)O)C(=O)N[C@@H](Cc2c[nH]c3ccccc23)C(=O)N[C@@H]([C@@H](C)O)C(=O)N1)C(=O)N[C@@H](Cc1c[nH]c2ccccc12)C(N)=O [PepSP1165] (H-AETVEFYGCRGGDGEWTCVW-NH2; disulfide 9-18; N-terminus assumed) |  | 1.1 | dose-response saturable binding |  |  | 
3 | CC(C)C[C@H](NC(=O)[C@@H]1CSSC[C@H](NC(=O)CNC(=O)[C@H](Cc2ccc(O)cc2)NC(=O)[C@H](Cc2ccccc2)NC(=O)[C@H](CCC(=O)O)NC(=O)[C@@H](NC(=O)[C@@H](NC(=O)[C@H](CCC(=O)O)NC(=O)[C@H](C)N)[C@@H](C)O)C(C)C)C(=O)N[C@@H](CCC(=O)O)C(=O)N[C@@H]([C@@H](C)O)C(=O)N[C@@H](Cc2ccc(O)cc2)C(=O)N[C@@H](CO)C(=O)NCC(=O)NCC(=O)N[C@@H](Cc2c[nH]c3ccccc23)C(=O)N[C@@H]([C@@H](C)O)C(=O)N1)C(=O)N[C@@H](Cc1c[nH]c2ccccc12)C(N)=O [PepSP1167] (H-AETVEFYGCETYSGGWTCLW-NH2; disulfide 9-18) |  | 0.783 | dose-response saturable binding |  |  | 
4 | CC(C)[C@@H]1NC(=O)[C@H](CO)NC(=O)[C@@H](NC(=O)CNC(=O)[C@H](Cc2ccc(O)cc2)NC(=O)[C@H](Cc2ccccc2)NC(=O)[C@H](CCC(=O)O)NC(=O)[C@@H](NC(=O)[C@@H](NC(=O)[C@H](CCC(=O)O)NC(=O)[C@H](C)N)[C@@H](C)O)C(C)C)CSSC[C@@H](C(=O)N[C@@H](CO)C(=O)N[C@@H](Cc2c[nH]c3ccccc23)C(N)=O)NC(=O)[C@H]([C@@H](C)O)NC(=O)[C@H](Cc2c[nH]c3ccccc23)NC(=O)CNC(=O)[C@H](CC(=O)O)NC(=O)[C@H](C)NC(=O)[C@H](CC(N)=O)NC1=O [PepSP1170] (H-AETVEFYGCSVNADGWTCSW-NH2; disulfide 9-18) |  | 0.717 | dose-response saturable binding |  |  | 
5 | CC(C)C[C@H](NC(=O)[C@@H]1CSSC[C@H](NC(=O)CNC(=O)[C@H](Cc2ccc(O)cc2)NC(=O)[C@H](Cc2ccccc2)NC(=O)[C@H](CCC(=O)O)NC(=O)[C@@H](NC(=O)[C@@H](NC(=O)[C@H](CCC(=O)O)NC(=O)[C@H](C)N)[C@@H](C)O)C(C)C)C(=O)N[C@@H](Cc2ccc(O)cc2)C(=O)NCC(=O)N[C@@H](CCC(=O)O)C(=O)N[C@@H](CCC(N)=O)C(=O)N[C@@H](CCC(=O)O)C(=O)N[C@@H](CCC(N)=O)C(=O)N[C@@H](Cc2c[nH]c3ccccc23)C(=O)N[C@@H]([C@@H](C)O)C(=O)N1)C(=O)N[C@@H](Cc1c[nH]c2ccccc12)C(N)=O [PepSP1173] (H-AETVEFYGCYGEQEQWTCLW-NH2; disulfide 9-18) |  | 1.68 | dose-response saturable binding |  |  | 
6 | CC(C)[C@H](NC(=O)[C@@H](NC(=O)[C@H](CCC(=O)O)NC(=O)[C@H](C)N)[C@@H](C)O)C(=O)N[C@@H](CCC(=O)O)C(=O)N[C@@H](Cc1ccccc1)C(=O)N[C@@H](Cc1ccc(O)cc1)C(=O)NCC(=O)N[C@H]1CSSC[C@@H](C(=O)N[C@@H](C)C(=O)N[C@@H](Cc2c[nH]c3ccccc23)C(N)=O)NC(=O)[C@H]([C@@H](C)O)NC(=O)[C@H](Cc2ccc(O)cc2)NC(=O)[C@H](CC(=O)O)NC(=O)[C@H](Cc2c[nH]c3ccccc23)NC(=O)CNC(=O)[C@H](Cc2ccc(O)cc2)NC(=O)[C@H](Cc2ccc(O)cc2)NC(=O)[C@H](CCC(N)=O)NC1=O [PepSP1176] (H-AETVEFYGCQYYGWDYTCAW-NH2; disulfide 9-18) |  | 1.12 | dose-response saturable binding |  |  | 

Other lines, results leading:

Row | RT (residence time) (Table 4, ± values from three independent experiments) [s] | residence time [1] [min] | binding mode to DLL3 | residence time (range over the seven peptides, read-out: residence time) [min] | affinity (wider dose-response 10×KD to 0.1×KD) | Kd (Table 4, global fitting 1:1 Langmuir, koff vs kon ratio, ± values from three independent experiments) [µM] | SMILES
7 | 166.8 ± 19.5 | 2.78 | dose-response saturable binding | 1 to 3 | double-digit nM range |  | CC(C)C[C@H](NC(=O)[C@H](Cc1ccccc1)NC(=O)[C@H](CCC(=O)O)NC(=O)[C@@H](NC(=O)[C@@H](NC(=O)[C@H](CCC(=O)O)NC(=O)[C@H](C)N)[C@@H](C)O)C(C)C)C(=O)NCC(=O)N[C@H]1CSSC[C@@H](C(=O)N[C@H](C(=O)N[C@@H](Cc2c[nH]c3ccccc23)C(N)=O)C(C)C)NC(=O)[C@H]([C@@H](C)O)NC(=O)[C@H](Cc2c[nH]c3ccccc23)NC(=O)[C@H](CCC(=O)O)NC(=O)[C@H](CO)NC(=O)[C@H](CC(N)=O)NC(=O)[C@H](CC(=O)O)NC(=O)CNC(=O)[C@H](Cc2c[nH]cn2)NC1=O [PepSP1163] (H-AETVEFLGCHGDNSEWTCVW-NH2; disulfide 9-18)
8 |  | 0.8 | dose-response saturable binding |  |  |  | CC(C)[C@H](NC(=O)[C@@H]1CSSC[C@H](NC(=O)[C@H](Cc2ccc(O)cc2)NC(=O)[C@H](CC(=O)O)NC(=O)[C@H](Cc2ccccc2)NC(=O)[C@H](CCC(=O)O)NC(=O)[C@@H](NC(=O)[C@@H](NC(=O)[C@H](CCC(=O)O)NC(=O)[C@H](C)N)[C@@H](C)O)C(C)C)C(=O)N[C@@H](Cc2ccc(O)cc2)C(=O)NCC(=O)N[C@@H](CC(=O)O)C(=O)N[C@@H](C(C)C)C(=O)N[C@@H](CCC(=O)O)C(=O)N[C@@H](CCC(=O)O)C(=O)N[C@@H](Cc2c[nH]c3ccccc23)C(=O)N[C@@H]([C@@H](C)O)C(=O)N1)C(=O)N[C@@H](Cc1ccc(O)cc1)C(N)=O [PepSP1166] (H-AETVEFDYCYGDVEEWTCVY-NH2; disulfide 9-18; N-terminus assumed)
9 |  | 0.733 | dose-response saturable binding |  |  |  | CC(C)[C@H](NC(=O)[C@@H](NC(=O)[C@H](CCC(=O)O)NC(=O)[C@H](C)N)[C@@H](C)O)C(=O)N[C@@H](CCC(=O)O)C(=O)N[C@@H](Cc1ccccc1)C(=O)N[C@@H](Cc1ccc(O)cc1)C(=O)NCC(=O)N[C@H]1CSSC[C@@H](C(=O)N[C@@H](C)C(=O)N[C@@H](Cc2c[nH]c3ccccc23)C(N)=O)NC(=O)[C@H]([C@@H](C)O)NC(=O)[C@H](Cc2c[nH]c3ccccc23)NC(=O)CNC(=O)[C@H](CCCCN)NC(=O)[C@H](Cc2c[nH]c3ccccc23)NC(=O)[C@H](CC(=O)O)NC(=O)[C@H](Cc2c[nH]c3ccccc23)NC(=O)[C@H](CCCCN)NC1=O [PepSP1168] (H-AETVEFYGCKWDWKGWTCAW-NH2; disulfide 9-18; N-terminus assumed)

Source: US20250074943A1, “DLL3 BINDING PEPTIDES AND USES THEREOF” (AMGEN INC., priority 2021, published 2025)
